EP0155094A1, “2-Arylimidazo(4,5-c)pyridines” (ELI LILLY AND COMPANY, priority 1984, dated 1985)
Counter-ions that a name gives are not always drawn.

Experiments:
[1] = system: Isolated Cat Papillary Muscles; assay: Positive inotropic activity in isolated cat papillary muscles; design: species or system Cats; conditions: Felis catus, maximum contractility, isolated cat papillary muscle, read-out: contractility, percent of control (control = 100 percent); for activity at 100 µM: 10^-4 M; for activity at 10 µM: 10^-5 M
Procedure: Cats of either sex were anesthetized with Metofane (1,1-difluoro-2,2-dichloroethyl methyl ether, Pittman-Moore) their hearts immediately removed and the papillary muscles dissected and suspended in individual organ baths. A platinum hook secured one end of the muscle to an electrode mounted in the bottom of the bath, and a silk thread attached the tendon to a Statham isometric transducer. The baths contained Krebs-Henseleit solution (36°C., bubbled with 95 percent oxygen - 5 percent carbon dioxide) of the following millimolar composition: NaCl, 118; KCl, 4.5; CaCl2, 2.5; KH2PO4, 1.1; MgS04, 1.2; NaHCO3, 25; and glucose, 11.
A base-line tension of 1.5 g. was applied to each muscle. Square-wave pulses (5.0 msec. in duration, 20 percent above threshold voltage) delivered through the hook electrode and a second electrode positioned near the top of the muscle evoked 12 contractions/minute, which were recorded on a Grass polygraph. After the muscles were equilibrated for 60 minutes, drugs were introduced in normal saline to bring the final concentration of the drug to 10 5 or 10^-4 molar. Increases in contractility were tabulated as millimeters of pen deflection in excess of the baseline values. In each experiment the maximum contractility was measured. As a percent of control (control = 100 percent), the compound of Example 1 produced a contractility of 149% at 10^-5 M and 168% at 10^-4 M and the compound of Example 2 gave a contractility of 240% at 10^-5M and 326% at 10^-4M.

cardiac contractility = assay: Cardiac contractility in anesthetized dogs; type: in vivo, Mongrel dogs; conditions: Canis lupus familiaris, iv, i.v. bolus, read-out: ED50 (dose, i.v., which produced a peak increase of 50% over control)
Procedure: Mongrel dogs of either sex ranging in weight from 7 to 14 kg. were used. Anesthesia was induced with sodium pentobarbital (30 mg./kg., i.v.) and maintained with supplemental doses as required. A positive-pressure pump was used to ventilate the dogs through an endotracheal tube (18 strokes/minute, 20 ml./kg. stroke 1), and a heating pad kept the body temperature at 37-38°C. Femoral arterial blood pressure was measured through a polyethylene catheter filled with heparin solution (16 units/ml.) and connected to a Statham pressure transducer. A strain-gauge arch sutured to the right ventricle of the heart measured cardiac contractility. Tension on the gauge was adjusted to 50 g. and the gain of the recorder (Beckman dynograph) was set so that 50 g. caused a 10-mm. pen deflection; cardiac contractile tension was measured as millimeters of pen deflection or grams of tension. The drug was administered following a 30-45 minute equilibrium period as an i.v. bolus (2-5 ml.) in a normal saline vehicle. […] The maximum effects on contractility at various dose levels were calculated as a percent of control (control = 100 percent). The compound of Example 1 produced an ED50 (dose, i.v., which produced a peak increase of 50% over control) of 0.030 mg./kg. while the compound of Example 2 gave an ^ED50 of 6 mcg./kg.

| Compound | activity at 100 µM [1] [%] | activity at 10 µM [1] [%] | ED50 (cardiac contractility) [mg/kg] |
| --- | --- | --- | --- |
| COc1cc(NS(C)(=O)=O)ccc1-c1nc2cnccc2[nH]1 [Example 1, 2-(2-Methoxy-4-methylsulfonamidophenyl)imidazo[4,5-c]pyridine] | 168 | 149 | 0.03 |
| COc1cc(OS(C)(=O)=O)ccc1-c1nc2cnccc2[nH]1 [Example 2, 4-(Imidazo[4,5-c]pyridin-2-yl)-3-methoxyphenol, methanesulfonate (ester) hydrochloride] | 326 | 240 | 0.006 |
